Earlier results, collected in patent US20050124592A1 (priority 2002, published 2005).
Where two headings read alike, the source gives them in different places.

How the values were obtained:
progesterone receptor = target: T1, progesterone receptor (Homo sapiens, UniProt P06401)
T1 sequence (P06401 1-933): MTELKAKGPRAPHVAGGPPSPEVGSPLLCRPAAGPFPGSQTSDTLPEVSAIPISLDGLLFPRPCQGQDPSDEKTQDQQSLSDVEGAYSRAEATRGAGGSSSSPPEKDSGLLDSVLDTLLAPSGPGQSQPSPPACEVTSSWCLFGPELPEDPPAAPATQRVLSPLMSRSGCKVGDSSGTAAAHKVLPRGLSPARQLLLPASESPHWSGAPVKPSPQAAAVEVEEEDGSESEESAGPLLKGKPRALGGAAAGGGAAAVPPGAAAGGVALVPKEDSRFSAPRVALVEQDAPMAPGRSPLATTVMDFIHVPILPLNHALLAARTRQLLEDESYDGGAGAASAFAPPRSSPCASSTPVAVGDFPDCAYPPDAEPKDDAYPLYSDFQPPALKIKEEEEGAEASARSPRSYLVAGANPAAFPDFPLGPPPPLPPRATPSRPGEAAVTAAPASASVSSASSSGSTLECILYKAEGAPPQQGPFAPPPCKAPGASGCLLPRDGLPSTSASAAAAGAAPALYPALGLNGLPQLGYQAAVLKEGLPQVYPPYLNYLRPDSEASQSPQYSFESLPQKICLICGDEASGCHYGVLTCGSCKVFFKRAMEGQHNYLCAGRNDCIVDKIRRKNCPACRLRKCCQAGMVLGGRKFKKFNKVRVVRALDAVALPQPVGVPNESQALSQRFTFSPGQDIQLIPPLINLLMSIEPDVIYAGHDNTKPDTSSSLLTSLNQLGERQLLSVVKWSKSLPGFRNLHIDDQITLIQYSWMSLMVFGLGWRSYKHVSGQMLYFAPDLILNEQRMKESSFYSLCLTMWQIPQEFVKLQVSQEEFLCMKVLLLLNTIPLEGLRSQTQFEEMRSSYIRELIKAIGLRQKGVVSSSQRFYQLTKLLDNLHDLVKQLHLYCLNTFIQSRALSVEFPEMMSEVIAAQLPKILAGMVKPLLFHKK

In the case of `C#C[C@]1(O)CC[C@H]2[C@@H]3[C@H](C)CC4=C(CCC(=O)C4)[C@H]3CC[C@@]21C` [tibolone, (7α,17α)-17-hydroxy-7-methyl-19-nor-17-pregn-5(10)-en-20-yn-3-one], the estrogenic activity (estrogen receptor) is given as “hardly has an estrogenic activity”, the estrogenic activity (estrogen receptor; listed as Tibolone) is given as “weak” and the progestagenic activity (progesterone receptor) is given as “weak”.
